Results on 4 compounds are retold here after patent US8841413B2, “Antidiabetic compounds” (Cadila Healthcare Limited, priority 2006, dated 2014).

Series [1] deals with T1, human glucagon receptor (Homo sapiens, UniProt P47871).
T1 construct: The full-length cDNA was cloned in pcDNA3.1(Invitrogen); expressed in transfected cells
In words: In vitro human glucagon antagonist activity (inhibition of cAMP production), CHO/human glucagon R cells. The series is classed as cell-based. As to the method:
CHO cells were grown in Ham's F12 medium containing L-Glutamine (2 mM), HEPES (25 mM), NaHCO3 (1.1 g/L) and supplemented with newborn Calf Serum (NBCS; 10%), Penicillin (50 U/ml (v/v)) and Streptomycin (50 ug/ml (v/v)). Cells were split every 3 days 1:8.
The full-length cDNA was cloned in pcDNA3.1(Invitrogen). […] Clones expressing the receptor were generated by G418 (800 μg/ml active, Sigma) selection. The stable clones were thereafter maintained at 500 ug/ml (G418). The selected clone was used between passages 9-25 for cAMP assays.
The trypsin was inactivated using Ham's F12 medium containing 10% NBCS and the cells were suspended in 2 ml of complete medium. […] The medium was aspirated off from the 12 well plate and the cells were washed once using Ham's F12 (plain). […] After the incubation; the medium was removed and cells were washed once with plain Ham's F12. Subsequently, the cells were lysed by adding 500 ul of ice cold 0.1 N HCl to each well and shaking for 30 minutes at 200 rpm. The cells were then scrapped, the lysate was collected in micro centrifuge tubes and centrifuged at 12000 rpm for 10 min to remove the debris. 300 ul of supernatant from each micro-centrifuge tube was then removed into a glass tube and dried under N2 for 30 min, for cAMP estimation. The total cAMP was estimated from the sample according to the manufacturer's protocol using Cyclic AMP immunoassay kit (R&D systems, Minneapolis: MN). The remaining supernatant is used to determine the protein concentration using micro BCA (Sigma). Data is calculated as percent of control (Vehicle: water) and expressed as Mean+SD.
In general terms: cAMP levels reflect the balance of adenylyl cyclase and phosphodiesterase activity.

Series [2] is described as follows: Stability in simulated intestinal fluid. Type of series: in vitro ADME. The note with it: 37° C.; for % degradation in 24 h when incubated with simulated intestinal fluid: 2 μM, pH 7.5; for half-life at 2 μM: simulated intestinal fluid, pH 7.5, read-out: half-life (t1/2) in simulated intestinal fluid. In outline: (§1)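 Quench: TFA/H2O 10% v/v. HPLC, TFA/H2O equilibration, 1 mL/min; UV 206 nm. Peaks hand-collected → ESI-MS.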

The subject of series [3] is RIN5F (Rat Insulinoma) cells. Put plainly: In vitro glucose-dependent insulin secretion (RIN5F cell assay). Type of series: cell-based. Particulars: 16.7 mM glucose load, mean ± S.D., n = 3. The protocol:
After trypsinization, RIN5F cells were seeded at a concentration of 0.2×10^6·cells per well, in 12 well plates.
The supernatant was collected and the insulin amount was measured by ultra sensitive Rat insulin ELISA kit (Crystal Chem, Ill.). The protein was estimated in the supernatant using Bicinchoninic Acid kit, according to the manufacturer's protocol (Sigma Aldrich, Mo.). The total insulin content obtained in Pico-gram (pg) was divided with the total protein (μg) in order to normalize for differences in cell density between wells.

Series [4] can be described thus: Stability against liver microsomes. Particulars: for % degradation in 24 h when incubated with liver microsomes: 2 μM, 37° C.; for half-life at 2 μM: human, human liver microsomes, pH 7.8, 37° C., read-out: half-life (t1/2) with liver microsomes. The series is classed as in vitro ADME, human. The method, boiled down: as §1
Series [5] in a line: Stability in human plasma. Type of series: in vitro ADME. Particulars: 2 μM, 37° C. In outline: as §1
The nature of series [6]: Stability in simulated gastric fluid. Type of series: in vitro ADME. The note with it: 37° C., pH 1.5, pepsin; for % degradation in 24 h when incubated with simulated gastric fluid: 2 μM; for half-life at 2 μM: simulated gastric fluid with pepsin, read-out: half-life (t1/2) in simulated gastric fluid. The method, boiled down:
as §1

The target in series [7] is DPP IV (Homo sapiens, UniProt P27487). Put plainly: Stability against DPP IV enzyme. Particulars: 2 μM, 37° C., 24 h. The series is classed as in vitro ADME. In outline: as §1
The mark [8] stands for this setting: 1 nM test compound (fourth concentration column, between 100 nM and 10 μM) with saturated concentration of glucagon peptide.
Setting [9] is: 1 nM test compound with saturated concentration of glucagon peptide.
Where [10] appears, read: 10 nM test compound with saturated concentration of glucagon peptide.
The mark [11] stands for this setting: 100 nM test compound with saturated concentration of glucagon peptide.
Setting [12] is: 10 μM test compound with saturated concentration of glucagon peptide.

Molecules are shown by their SMILES.

Sequence of DPP IV (P27487 whole entry, species assumed): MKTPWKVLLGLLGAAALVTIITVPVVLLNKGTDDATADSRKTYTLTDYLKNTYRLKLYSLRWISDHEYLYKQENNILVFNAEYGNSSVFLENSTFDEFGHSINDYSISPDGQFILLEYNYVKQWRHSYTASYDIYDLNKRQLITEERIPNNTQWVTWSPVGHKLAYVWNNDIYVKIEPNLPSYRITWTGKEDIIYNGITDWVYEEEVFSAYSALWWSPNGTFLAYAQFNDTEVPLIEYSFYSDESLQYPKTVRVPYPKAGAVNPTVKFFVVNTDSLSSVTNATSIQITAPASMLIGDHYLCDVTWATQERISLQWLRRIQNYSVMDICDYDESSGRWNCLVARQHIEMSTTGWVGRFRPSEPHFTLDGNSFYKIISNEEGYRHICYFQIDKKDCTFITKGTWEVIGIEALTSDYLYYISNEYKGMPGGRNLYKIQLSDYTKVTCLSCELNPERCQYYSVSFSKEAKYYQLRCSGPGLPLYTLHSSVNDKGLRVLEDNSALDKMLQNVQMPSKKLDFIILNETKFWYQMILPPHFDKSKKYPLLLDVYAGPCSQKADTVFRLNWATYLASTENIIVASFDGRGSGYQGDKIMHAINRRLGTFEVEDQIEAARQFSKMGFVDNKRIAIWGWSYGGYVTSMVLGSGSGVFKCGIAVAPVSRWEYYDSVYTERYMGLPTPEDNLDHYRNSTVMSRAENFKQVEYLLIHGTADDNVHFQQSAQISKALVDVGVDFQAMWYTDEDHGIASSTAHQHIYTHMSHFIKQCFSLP
T1 sequence (P47871 26-477): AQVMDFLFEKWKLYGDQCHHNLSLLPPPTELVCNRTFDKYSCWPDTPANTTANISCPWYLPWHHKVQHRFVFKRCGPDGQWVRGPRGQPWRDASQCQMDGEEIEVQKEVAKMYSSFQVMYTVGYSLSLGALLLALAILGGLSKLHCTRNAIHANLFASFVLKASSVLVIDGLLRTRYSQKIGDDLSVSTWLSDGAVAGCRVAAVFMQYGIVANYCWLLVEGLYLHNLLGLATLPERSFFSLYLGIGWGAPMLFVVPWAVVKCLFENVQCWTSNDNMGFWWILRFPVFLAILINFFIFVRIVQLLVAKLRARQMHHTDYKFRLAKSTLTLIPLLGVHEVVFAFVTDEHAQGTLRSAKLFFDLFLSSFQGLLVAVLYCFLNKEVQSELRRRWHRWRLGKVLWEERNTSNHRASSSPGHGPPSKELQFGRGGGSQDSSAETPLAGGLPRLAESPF

`CCc1cc(OC)ccc1-c1ccc(CC(NC(=O)[C@H](CC(=O)O)NC(=O)[C@H](CO)NC(=O)[C@@H](NC(=O)[C@H](Cc2ccccc2)NC(=O)[C@@H](NC(=O)CNC(=O)[C@H](CCC(N)=O)NC(=O)[C@H](CO)NC(=O)[C@@H](N)Cc2c[nH]cn2)[C@@H](C)O)[C@@H](C)O)C(=O)NC(Cc2ccc(-c3ccccc3C(F)(F)F)cc2)C(N)=O)cc1` (single isomer, unassigned) [compound 8]: the “Human Glucagon receptor antagonistic activity, inhibition of cAMP production of Glucagon peptide” value was 0 pmol/ml/μg prt in series [1] (setting [8]); 4 ± 0.01 pmol/ml/μg prt in series [1] (setting [9]); 2 ± 0.17 pmol/ml/μg prt in series [1] (setting [10]); 0 pmol/ml/μg prt in series [1] (setting [11]); 0 pmol/ml/μg prt in series [1] (setting [12]). Moreover, the “% degradation in 24 h when incubated with simulated intestinal fluid” value (from here on “% degradation … with simulated intestinal fluid”) in series [2] is listed as 100%. The half-life at 2 μM in series [2], in series [4] and in series [6] was 30 min throughout. In addition, the Insulin secretion is 12.6 ± 0.20 pg/µg/h in series [3] (0.1 nM test compd.), 15.9 ± 0.31 pg/µg/h in series [3] (1 nM test compd.) and 28.4 ± 0.11 pg/µg/h in series [3] (10 nM test compd.). Besides, the “% degradation in 24 h when incubated with liver microsomes” value (“% degradation … with liver microsomes” below) in series [4] was 100%. For the same compound, the “half-life (t1/2) in human plasma” value in series [5] was “(9) h”. For the same compound, in series [5], the “% degradation in 24 h when incubated with human plasma” value (“% degradation … with human plasma” for short) came to 78%. Moreover, in series [6], the “% degradation in 24 h when incubated with simulated gastric fluid” value (from here on “% degradation … with simulated gastric fluid”) was 100%. Also, the “% degradation in 24 h when incubated with DPP-IV enzyme” value (“% degradation … with DPP-IV enzyme” for short) in series [7] worked out at 76%.

Consider `CCc1cc(OC)ccc1-c1ccc(CC(NC(=O)[C@H](CC(=O)O)NC(=O)[C@H](CO)NC(=O)[C@@H](NC(=O)[C@H](Cc2ccccc2)NC(=O)[C@@H](NC(=O)CNC(=O)[C@H](CCC(N)=O)NC(=O)[C@H](C)NC(=O)[C@@H](N)Cc2c[nH]cn2)[C@@H](C)O)[C@@H](C)O)C(=O)NC(Cc2ccc(-c3ccccc3C)cc2)C(N)=O)cc1` (single isomer, unassigned) [compound 9], for which the “Human Glucagon receptor antagonistic activity, inhibition of cAMP production of Glucagon peptide” value in series [1] (setting [8]) was determined as 8 ± 0.02 pmol/ml/μg prt; in series [1] (setting [9]), 18 ± 0.07 pmol/ml/μg prt; in series [1] (setting [10]), 16 ± 0.01 pmol/ml/μg prt; in series [1] (setting [11]) it was 12 ± 0.03 pmol/ml/μg prt; in series [1] (setting [12]), 6 ± 0.08 pmol/ml/μg prt. Further, in series [2], the “% degradation … with simulated intestinal fluid” value was 100%. Further, the half-life at 2 μM in series [2], in series [4] and in series [6] was 30 min each time. Also, the Insulin secretion in series [3] (0.1 nM test compd.) turned out to be 11.8 ± 0.50 pg/µg/h; in series [3] (1 nM test compd.), 14.9 ± 0.11 pg/µg/h; in series [3] (10 nM test compd.), 27.9 ± 0.31 pg/µg/h. Besides, the “% degradation … with liver microsomes” value in series [4] is 100%. Moreover, the “half-life (t1/2) in human plasma” value in series [5] is “(9) h”. Also, in series [5], the “% degradation … with human plasma” value was 75%. Moreover, the “% degradation … with simulated gastric fluid” value in series [6] was 100%. The “% degradation … with DPP-IV enzyme” value in series [7] is on record as 74%.

Consider `CCc1cc(OC)ccc1-c1ccc(CC(NC(=O)[C@H](CC(=O)O)NC(=O)[C@H](CO)NC(=O)[C@@H](NC(=O)[C@H](Cc2ccccc2)NC(=O)[C@@H](NC(=O)CNC(=O)[C@H](CCC(N)=O)NC(=O)[C@H](C)NC(=O)[C@@H](N)Cc2c[nH]cn2)[C@@H](C)O)[C@@H](C)O)C(=O)NC(Cc2ccc(-c3ccccc3C)nc2)C(N)=O)cc1` (single isomer, unassigned) [compound 10], for which the “Human Glucagon receptor antagonistic activity, inhibition of cAMP production of Glucagon peptide” value in series [1] (setting [8]) is recorded as 4 ± 0.01 pmol/ml/μg prt; in series [1] (setting [9]), 15 ± 0.11 pmol/ml/μg prt; in series [1] (setting [10]) it was 12 ± 0.13 pmol/ml/μg prt; in series [1] (setting [11]) it was 8 ± 0.09 pmol/ml/μg prt; in series [1] (setting [12]), 2 ± 0.08 pmol/ml/μg prt. For the same compound, the “% degradation … with simulated intestinal fluid” value in series [2] is 100%. The half-life at 2 μM in series [2], in series [4] and in series [6] was 30 min each time. Also, the figures for the Insulin secretion in series [3] (0.1 nM test compd.), in series [3] (1 nM test compd.) and in series [3] (10 nM test compd.) were 12.7 ± 0.21 pg/µg/h, 15.8 ± 0.33 pg/µg/h and 29.3 ± 0.19 pg/µg/h, respectively. Moreover, the “% degradation … with liver microsomes” value in series [4] is 100%. In addition, the “half-life (t1/2) in human plasma” value in series [5] was “(9) h”. Further, the “% degradation … with human plasma” value in series [5] is 71%. For the same compound, the “% degradation … with simulated gastric fluid” value in series [6] is 100%. Further, the “% degradation … with DPP-IV enzyme” value in series [7] came to 70%.

Consider `CCc1cc(OC)ccc1-c1ccc(CC(NC(=O)[C@H](CC(=O)O)NC(=O)[C@H](CO)NC(=O)[C@@H](NC(=O)[C@H](Cc2ccccc2)NC(=O)[C@@H](NC(=O)CNC(=O)[C@H](CCC(N)=O)NC(=O)[C@H](C)NC(=O)[C@@H](N)Cc2c[nH]cn2)[C@@H](C)O)[C@@H](C)O)C(=O)NC(Cc2ccc(-c3ccccc3F)cc2)C(N)=O)cc1` (single isomer, unassigned) [compound 11], for which the “Human Glucagon receptor antagonistic activity, inhibition of cAMP production of Glucagon peptide” value in series [1] (setting [8]) was 2 ± 0.13 pmol/ml/μg prt; in series [1] (setting [9]), 10 ± 0.03 pmol/ml/μg prt; in series [1] (setting [10]), 8 ± 0.03 pmol/ml/μg prt; in series [1] (setting [11]), 6 ± 0.22 pmol/ml/μg prt; in series [1] (setting [12]), 0 pmol/ml/μg prt. Further, the “% degradation … with simulated intestinal fluid” value in series [2] is given as 100%. Further, the half-life at 2 μM in series [2], in series [4] and in series [6] was 30 min in each case. The Insulin secretion is 13.1 ± 0.11 pg/µg/h in series [3] (0.1 nM test compd.), 14.9 ± 0.17 pg/µg/h in series [3] (1 nM test compd.) and 28.8 ± 0.44 pg/µg/h in series [3] (10 nM test compd.). The “% degradation … with liver microsomes” value in series [4] is recorded as 100%. In addition, the “half-life (t1/2) in human plasma” value in series [5] was “(9) h”. In series [5], the “% degradation … with human plasma” value worked out at 70%. Moreover, in series [6], the “% degradation … with simulated gastric fluid” value is 100%. Moreover, the “% degradation … with DPP-IV enzyme” value in series [7] was determined as 86%.
